Test results: patent publication US6362183B1, “Aromatic sulfonyl alpha-hydroxy hydroxamic acid compounds” (G. D. Searle & Company, priority 1997, dated 2002)

Columns and labels:
[1] = target: T1, recombinant human MMP-1 (Homo sapiens, UniProt P03956); experiment: In vitro metalloprotease inhibition, fluorogenic peptide assay; assay type: biochemical; details: APMA-activated enzyme, MCA peptide substrate 4 μM, room temperature, pH 7.5
T1 construct: made in house; host or cells: transfected HT-1080 cells
T1 sequence (P03956 100-469): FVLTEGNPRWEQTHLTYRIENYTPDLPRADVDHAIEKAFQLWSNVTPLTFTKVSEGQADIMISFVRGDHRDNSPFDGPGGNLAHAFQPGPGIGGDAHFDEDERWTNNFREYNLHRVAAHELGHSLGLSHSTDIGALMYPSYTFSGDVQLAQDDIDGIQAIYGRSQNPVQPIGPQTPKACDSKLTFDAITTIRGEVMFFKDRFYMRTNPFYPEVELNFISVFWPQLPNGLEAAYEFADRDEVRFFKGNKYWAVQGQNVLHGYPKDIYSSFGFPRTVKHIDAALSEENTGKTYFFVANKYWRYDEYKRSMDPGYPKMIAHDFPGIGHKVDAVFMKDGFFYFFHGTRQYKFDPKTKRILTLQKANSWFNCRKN
Procedure: (§1) Briefly, 4-aminophenylmercuric acetate (APMA) or trypsin activated MMPs were incubated with various concentrations of the inhibitor compound at room temperature for 5 minutes.
(§2) More specifically, recombinant human MMP-13 and MMP-1 enzymes were prepared in laboratories of the assignee. MMP-13 was expressed in baculovirus as a proenzyme, and purified first over a heparin agarose column and then over a chelating zinc chloride column. The proenzyme was activated by APMA for use in the assay. MMP-1 expressed in transfected HT-1080 cells was provided by Dr. Howard Welgus of Washington University, St. Louis, Mo. The enzyme was also activated using APMA and was then purified over a hydroxamic acid column.
(§3) MCA-ProLeuGlyLeuDpaAlaArgNH^2, wherein MCA is methoxycoumarin and Dpa is 3-(2,4-dinitrophenyl)-L-2,3-diaminopropionyl alanine.
(§4) The buffer used for assays contained 100 mM Tris-HCl, 100 mM NaCl, 10 mM CaCl2 and 0.05 percent polyethyleneglycol (23) lauryl ether at a pH value of 7.5.

[2] = target: T2, recombinant human MMP-13 (Homo sapiens, UniProt P45452); experiment: as above; assay type: biochemical; details: for IC50: APMA-activated enzyme, MCA peptide substrate 4 μM, room temperature, pH 7.5
T2 construct: made in house
Procedure: as §1, §2, §3, §4

[3] = target: MMP-3 (Homo sapiens, UniProt P08254); experiment: as above; assay type: biochemical; details: MCA peptide substrate 4 μM, room temperature, pH 7.5
MMP-3, sequence (P08254 100-477, species assumed): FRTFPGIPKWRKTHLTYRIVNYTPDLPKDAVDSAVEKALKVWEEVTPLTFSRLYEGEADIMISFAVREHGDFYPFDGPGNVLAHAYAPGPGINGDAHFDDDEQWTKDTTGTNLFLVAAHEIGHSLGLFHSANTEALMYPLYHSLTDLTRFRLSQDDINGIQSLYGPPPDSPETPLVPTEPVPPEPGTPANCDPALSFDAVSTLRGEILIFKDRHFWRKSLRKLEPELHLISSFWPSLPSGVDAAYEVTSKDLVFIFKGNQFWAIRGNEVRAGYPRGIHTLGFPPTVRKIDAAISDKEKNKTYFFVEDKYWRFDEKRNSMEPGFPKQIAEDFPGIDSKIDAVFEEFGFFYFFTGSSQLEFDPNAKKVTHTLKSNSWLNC
Procedure: as §1, §3, §4

[4] = target: MMP-8 (Homo sapiens, UniProt P22894); experiment: as above; assay type: biochemical; details: MCA peptide substrate 4 μM, room temperature, pH 7.5
MMP-8, sequence (P22894 101-467, species assumed): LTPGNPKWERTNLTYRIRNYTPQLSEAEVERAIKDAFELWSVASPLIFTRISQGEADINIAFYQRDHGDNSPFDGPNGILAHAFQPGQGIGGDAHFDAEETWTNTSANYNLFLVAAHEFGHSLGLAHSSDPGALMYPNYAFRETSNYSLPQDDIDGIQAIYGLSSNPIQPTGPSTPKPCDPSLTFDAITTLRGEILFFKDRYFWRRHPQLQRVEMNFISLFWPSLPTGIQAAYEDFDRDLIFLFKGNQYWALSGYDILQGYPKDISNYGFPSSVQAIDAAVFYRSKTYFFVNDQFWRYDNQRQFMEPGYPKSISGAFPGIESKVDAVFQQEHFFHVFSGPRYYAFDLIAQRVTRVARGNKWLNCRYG
Procedure: as §1, §3, §4

[5] = target: T3, MMP-2 (Homo sapiens, UniProt P08253); experiment: as above; assay type: biochemical; details: MCA peptide substrate 4 μM, room temperature, pH 7.5
T3 sequence (P08253 110-660): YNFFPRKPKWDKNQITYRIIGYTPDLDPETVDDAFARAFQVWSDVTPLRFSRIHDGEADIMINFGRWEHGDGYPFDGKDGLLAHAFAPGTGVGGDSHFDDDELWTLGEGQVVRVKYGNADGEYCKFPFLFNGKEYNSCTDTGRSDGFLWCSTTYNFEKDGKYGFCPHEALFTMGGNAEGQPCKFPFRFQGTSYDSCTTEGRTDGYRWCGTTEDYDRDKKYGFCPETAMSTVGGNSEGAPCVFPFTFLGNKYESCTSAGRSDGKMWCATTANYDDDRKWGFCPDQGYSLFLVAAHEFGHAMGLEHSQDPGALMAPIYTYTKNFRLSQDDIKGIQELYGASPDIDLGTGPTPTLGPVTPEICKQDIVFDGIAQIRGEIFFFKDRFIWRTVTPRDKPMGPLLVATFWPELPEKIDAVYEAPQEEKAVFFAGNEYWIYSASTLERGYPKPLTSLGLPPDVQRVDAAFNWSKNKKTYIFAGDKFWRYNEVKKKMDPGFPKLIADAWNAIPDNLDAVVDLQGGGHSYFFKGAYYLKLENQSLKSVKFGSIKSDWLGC
Procedure: as §1, §3, §4

[6] = target: MMP-9 (Homo sapiens, UniProt P14780); experiment: as above; assay type: biochemical; details: MCA peptide substrate 4 μM, room temperature, pH 7.5
MMP-9, sequence (P14780 107-707 limits assumed, species assumed): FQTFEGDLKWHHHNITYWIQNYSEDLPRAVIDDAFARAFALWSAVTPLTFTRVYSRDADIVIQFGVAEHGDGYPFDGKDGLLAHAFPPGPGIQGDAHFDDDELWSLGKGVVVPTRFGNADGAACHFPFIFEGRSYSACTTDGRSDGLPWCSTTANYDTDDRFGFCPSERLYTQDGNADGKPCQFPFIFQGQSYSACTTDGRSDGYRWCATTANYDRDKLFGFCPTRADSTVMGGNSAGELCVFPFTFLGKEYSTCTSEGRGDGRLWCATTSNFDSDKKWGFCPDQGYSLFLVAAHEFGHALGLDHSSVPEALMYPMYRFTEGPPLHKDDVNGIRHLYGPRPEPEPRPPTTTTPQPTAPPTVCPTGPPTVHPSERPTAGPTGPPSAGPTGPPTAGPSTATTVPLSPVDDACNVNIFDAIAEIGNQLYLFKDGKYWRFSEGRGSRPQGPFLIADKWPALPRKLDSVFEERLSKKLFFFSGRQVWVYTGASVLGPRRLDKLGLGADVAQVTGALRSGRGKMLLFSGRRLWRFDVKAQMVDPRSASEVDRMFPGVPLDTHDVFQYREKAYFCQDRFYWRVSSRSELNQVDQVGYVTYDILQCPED
Procedure: as §1, §3, §4

[7] = tested on: angiogenesis in the cornea of a mouse; experiment: In vivo angiogenesis assay (corneal micropocket assay); set-up: species or system mouse (C57Bl/6); details: area of corneal neovascularization, bFGF pellet, dosed daily, scored at day five; exemplary dose 50 mg/kg bid, po
Procedure: The study of angiogenesis depends on a reliable and reproducible model for the stimulation and inhibition of a neovascular response. The corneal micropocket assay provides such a model of angiogenesis in the cornea of a mouse. See, A Model of Angiogenesis in the Mouse Cornea; Kenyon, B M, et al., Investigative Ophthalmology & Visual Science, Jul.
In this assay, uniformly sized Hydron™ pellets containing bFGF and sucralfate were prepared and surgically implanted into the stroma mouse cornea adjacent to the temporal limbus. The pellets were formed by making a suspension of 20 μL sterile saline containing […] recombinant bFGF, 10 mg of sucralfate and 10 μL of 12 percent Hydron™ in ethanol. The slurry was then deposited on a 10×10 mm piece of sterile nylon mesh. After drying, the nylon fibers of the mesh were separated to release the pellets.
The corneal pocket was made by anesthetizing a 7 week old C57Bl/6 female mouse, then proptosing the eye with a jeweler's forceps. Using a dissecting microscope, a central, intrastromal linear keratotomy of approximately 0.6 mm in length was performed with a #15 surgical blade, parallel to the insertion of the lateral rectus muscle. Using a modified cataract knife, a lamellar micropocket was dissected toward the temporal limbus. The pocket was extended to within 1.0 mm of the temporal limbus. A single pellet was placed on the corneal surface at the base of the pocket with a jeweler's forceps. The pellet was then advanced to the temporal end of the pocket. Antibiotic ointment was then applied to the eye.
Mice were dosed on a daily basis for the duration of the assay. Dosing of the animals was based on bioavailability and overall potency of the compound. An exemplary dose is 50 mg/kg bid, po. Neovascularization of the corneal stroma begins at about day three and was permitted to continue under the influence of the assayed compound until day five. At day five, the degree of angiogenic inhibition was scored by viewing the neovascular progression with a slit lamp microscope.
The mice were anesthetized and the studied eye was once again proptosed. The maximum vessel length of neovascularization, extending from the limbal vascular plexus toward the pellet was measured. In addition, the contiguous circumferential zone of neovascularization was measured as clock hours, where 30 degrees of arc equals one clock hour. The area of angiogenesis was calculated as follows. [formula]
The studied mice were thereafter compared to control mice and the difference in the area of neovascularization was recorded.

[8] = tested on: advanced, rapidly progressive, treatment-refractory solid tumor cancers; details: patients with colorectal, pancreatic, ovarian, prostate cancers; cited from earlier work

| SMILES | IC50 [1] [nM] | IC50 [2] [nM] | IC50 [3] [nM] | IC50 [4] [nM] | IC50 [5] [nM] | IC50 [6] [nM] | Percentage of Control [7] [%] | ratio of inhibition of MMP-1 to inhibition of MMP-13, relative to the compound of opposite configuration ([2]; Example 1A versus Example 1B) | inhibitory activity against MMP-13 (in words) ([2]; discussion of Table 51) | effect on cancer-specific antigens used as surrogate markers for biological activity [8] |
| --- | --- | --- | --- | --- | --- | --- | --- | --- | --- | --- |
| CC(O)(CS(=O)(=O)c1ccc(Oc2ccccc2)cc1)C(=O)NO (stereo not shown) [Example 1, N,2-dihydroxy-2-methyl-3-[(4-phenoxyphenyl)sulfonyl]propanamide] | 1100 | 1.1 | 30 | 2.5 | 0.5 | 4.8 | 51.9 |  |  |  |
| C[C@@](O)(CS(=O)(=O)c1ccc(Oc2ccccc2)cc1)C(=O)NO [Example 1A, (S)—N,2-dihydroxy-2-methyl-3-[(4-phenoxyphenyl)sulfonyl]propanamide] | 1010 | 0.75 |  |  | 0.39 | 1.7 | 62.7 | about 2 times |  |  |
| C[C@](O)(CS(=O)(=O)c1ccc(Oc2ccccc2)cc1)C(=O)NO [Example 1B, (R)—N,2-dihydroxy-2-methyl-3-[(4-phenoxyphenyl)sulfonyl]-propanamide] | > 10000 | 21.5 |  |  | 11 | 328 | 49.3 |  |  |  |
| O=C(NO)C(O)(CO)CS(=O)(=O)c1ccc(Oc2ccccc2)cc1 (stereo not shown) [Example 2, N,2-dihydroxy-2-(hydroxymethyl)-3-[(4-phenoxyphenyl)-sulfonyl]propanamide] | 470 | 1.2 | 44 | 4.1 | 1 | 7 | 53.4 |  |  |  |
| Cl.O=C(NO)C(O)(CN1CCOCC1)CS(=O)(=O)c1ccc(Oc2ccccc2)cc1 (stereo not drawn) [Example 3, N,α-dihydroxy-α-[[(4-phenoxyphenyl)sulfonyl]methyl]-4-morpholinepropanamide, monohydrochloride] | 6000 | 3 | 166 | 4 | 1 | 20 | 77.4 |  |  |  |
| Cc1ccc(Oc2ccc(S(=O)(=O)CC(O)(CO)C(=O)NO)cc2)cc1C (stereo not shown) [Example 4, 3-[[4-(3,4-dimethylphenoxy)phenyl]sulfonyl]-N,2-dihydroxy-2-(hydroxymethyl)propanamide] | 9000 | 0.4 | 48.5 | 4.5 | 0.4 | 12.4 | 65.2 |  |  |  |
| Cc1ccc(Oc2ccc(S(=O)(=O)CC(C)(O)C(=O)NO)cc2)cc1C (stereo not shown) [Example 5, 3-[[4-(3,4-dimethylphenoxy)phenyl]sulfonyl]-N,2-dihydroxy-2-methylpropanamide] | > 10000 | 1.3 | 26.8 | 2.5 | 2.4 | 3.4 | 57.8 |  |  |  |
| Cc1ccc(Oc2ccc(S(=O)(=O)CC(O)(CN3CCOCC3)C(=O)NO)cc2)cc1C (stereo not drawn) [Example 7, α-[[[4-(3,4-dimethylphenoxy)-phenyl]sulfonyl]methyl]-N-2-dihydroxy-4-morpholineproanamide] | > 10000 | 2.1 | 51.8 | 4 | 2 | 13 |  |  |  |  |
| O=C(NO)C(O)CS(=O)(=O)c1ccc(Oc2ccccc2)cc1 (stereo not shown) [Example 9] | 3000 | 0.2 |  |  | 0.4 | 16 | 61.1 |  | excellent activity |  |
| CC(O)(CS(=O)(=O)c1ccc(NC(=O)c2ccccc2)cc1)C(=O)NO (stereo not shown) [Example 16, N-[4-[[2-hydroxy-3-(hydroxyamino)-2-methyl-3-oxopropyl]-sulfonyl]phenyl]benzamide] | > 10000 | 110 |  |  | 0.8 | 1160 | 41.6 |  |  |  |
| CNC(=O)[C@@H](NC(=O)[C@H](CC(C)C)[C@H](O)C(=O)NO)C(C)(C)C [marimastat] |  |  |  |  |  |  |  |  |  | dose-related reduction in the rise of cancer-specific antigens |
